According to EP0585371B1, “AROMATIC OLIGOMERIC COMPOUNDS USEFUL AS MIMICS OF BIOACTIVE MACROMOLECULES” (RHONE-POULENC RORER INTERNATIONAL (HOLDINGS) INC., priority 1991, dated 1992):

Legend:
[1] = molecular target: T1, ESb mouse lymphoma heparanase (Mus musculus, UniProt Q6YGZ1); assay: Inhibition of heparanase activity (degradation of labeled ECM heparan sulfate); assay type: biochemical; conditions: 24 hours incubation with labeled ECM
T1 construct: endogenous in cells; host or cells: ESb mouse lymphoma cells
T1 sequence (Q6YGZ1 28-535): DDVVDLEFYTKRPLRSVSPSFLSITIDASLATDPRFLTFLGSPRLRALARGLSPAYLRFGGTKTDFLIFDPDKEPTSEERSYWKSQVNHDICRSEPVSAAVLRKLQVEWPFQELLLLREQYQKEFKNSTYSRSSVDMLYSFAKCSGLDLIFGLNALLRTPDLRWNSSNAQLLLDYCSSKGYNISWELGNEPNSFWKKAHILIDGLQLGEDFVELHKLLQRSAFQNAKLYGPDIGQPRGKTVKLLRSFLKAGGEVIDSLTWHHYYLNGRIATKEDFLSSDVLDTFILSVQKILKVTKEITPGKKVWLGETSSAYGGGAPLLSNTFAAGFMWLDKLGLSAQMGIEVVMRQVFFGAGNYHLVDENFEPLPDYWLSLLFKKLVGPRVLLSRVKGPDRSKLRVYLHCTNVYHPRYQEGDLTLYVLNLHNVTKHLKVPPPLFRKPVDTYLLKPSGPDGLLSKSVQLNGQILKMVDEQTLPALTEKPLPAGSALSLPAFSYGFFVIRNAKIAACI
Procedure: Heparanase is an endoglucuronidase capable of degrading […] (HS) at specific intrachain sites.
The ability of compounds of the present invention to inhibit lymphomacell derived heparanase is tested in the assay system described by Vlodavsky et al., Cancer Research 43, 2704-2711 (1983). […] labeled ECM is incubated for 24 hours with ESb mouse lymphoma heparanase in the presence of various concentrations of the oligomers tested. Degradation of the HS is followed by gel filtration of the supematants. Heparanase activity is expressed as the total amount of labeled low-molecular-weight fragments released from the EMC substrate.

normal pooled plasma = assay: Anticoagulation activity, Activated Partial Thromboplastin Time (APTT) test; conditions: concentration required to double clotting time
Summary of the method: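 Normal pooled plasma was mixed with compound in 50 mM Tris-HCl, pH 7.5, and held at 37 °C for 2.5 min. Actin-activated cephaloplastin was added for 5 min, then 35 mM CaCl, and clotting time was read photometrically. Over about .025–1 mg/ml, the concentration doubling clotting time was found by linear interpolation.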

vWF Binding to Gp1b = molecular target: T2, vWF Binding to Gp1b (Homo sapiens, UniProt P04275+P07359); assay: Inhibition of ristocetin-induced binding of 125I-vWF to formalin-fixed platelets; conditions: at 100 µg/ml; ristocetin 1.0 mg/ml
T2 construct: multimeric vWF (isolated from human plasma cryoprecipitate); Formalin-fixed platelets, prepared according to the method of MacFarlane; from tissue; host or cells: vWF from human plasma cryoprecipitate; GPIb on formalin-fixed platelets
Procedure: The binding of vWf (vonWillebrand Factor) to glycoprotein Ib is measured in one of two experimental systems, in the presence of either ristocetin or botrocetin as modulators of binding. The ristocetin modulated binding is described herein.
Formalin-fixed platelets, prepared according to the method of MacFarlane, D. et al., Thromb. Diath. Haemorrh. 34, 306-308 (1975), were preincubated at room temperature for 15 minutes with specified dilutions of oligomers according to the present invention. Ristocetin, (Sigma, St. Louis, MO) diluted to a final concentration of 1.0 mg/ml, and ^125I-labelled multimeric vWF (isolated from human plasma cryoprecipitate according to the method of Fulcher, C.A. et al. Proc. Natl. Acad. Sci. USA, 79, 1648-1652 (1982), and labelled according to the method of Fraker, P.J. et al. Biochem. Biophys. Res. Commun., 80, 849-857 (1978)) were then added to the incubation mixture, and the amount of ^125I- vWF bound to the platelets was determined. ^125I-vWF binding to the platelets was referenced against 100% binding which was defined as the amount of ^125I- vWF bound in the absence of added oligomer compound. The method for measuring vWF binding is reported in detail in Ruggeri et al., J. Clin. Invest., 72, 1-12, (1983), herein incorporated by reference.

[2] = test system: human fixed thrombin activated platelets; assay: Platelet aggregation inhibition (fibrinogen-induced); assay type: cell-based; conditions: human fibrinogen added
Procedure: The method for measuring platelet aggregation inhibition is essentially that of Ruggeri, et al., Proc. Natl. Acad. Sci. USA, 83, 5708-5712 (1986), using formalin-fixed platelets as prepared by Plow, et al., Proc. Natl. Acad. Sci. USA, 79, 3711-3715 (1982). A given amount of the compound of the present invention or other compound to be tested (10 to 100 µl of a 1 mg/ml solution) is incubated at 37°C with 400 µl of human fixed thrombin activated platelets for 2 minutes. 12.5 µl of human fibrinogen solution is added and aggregation is monitored using a platelet aggregation profiler (Model PAP-4). Controls consist of fibrinogen added to incubated platelets and the resulting aggregation is considered as 100%. Percent inhibition in the presence of a given concentration of test compound versus concentration of the compound is plotted and the concentration required to give 50% inhibition (IC50) is determined.

T2 sequence (P04275 764-2813 limits assumed): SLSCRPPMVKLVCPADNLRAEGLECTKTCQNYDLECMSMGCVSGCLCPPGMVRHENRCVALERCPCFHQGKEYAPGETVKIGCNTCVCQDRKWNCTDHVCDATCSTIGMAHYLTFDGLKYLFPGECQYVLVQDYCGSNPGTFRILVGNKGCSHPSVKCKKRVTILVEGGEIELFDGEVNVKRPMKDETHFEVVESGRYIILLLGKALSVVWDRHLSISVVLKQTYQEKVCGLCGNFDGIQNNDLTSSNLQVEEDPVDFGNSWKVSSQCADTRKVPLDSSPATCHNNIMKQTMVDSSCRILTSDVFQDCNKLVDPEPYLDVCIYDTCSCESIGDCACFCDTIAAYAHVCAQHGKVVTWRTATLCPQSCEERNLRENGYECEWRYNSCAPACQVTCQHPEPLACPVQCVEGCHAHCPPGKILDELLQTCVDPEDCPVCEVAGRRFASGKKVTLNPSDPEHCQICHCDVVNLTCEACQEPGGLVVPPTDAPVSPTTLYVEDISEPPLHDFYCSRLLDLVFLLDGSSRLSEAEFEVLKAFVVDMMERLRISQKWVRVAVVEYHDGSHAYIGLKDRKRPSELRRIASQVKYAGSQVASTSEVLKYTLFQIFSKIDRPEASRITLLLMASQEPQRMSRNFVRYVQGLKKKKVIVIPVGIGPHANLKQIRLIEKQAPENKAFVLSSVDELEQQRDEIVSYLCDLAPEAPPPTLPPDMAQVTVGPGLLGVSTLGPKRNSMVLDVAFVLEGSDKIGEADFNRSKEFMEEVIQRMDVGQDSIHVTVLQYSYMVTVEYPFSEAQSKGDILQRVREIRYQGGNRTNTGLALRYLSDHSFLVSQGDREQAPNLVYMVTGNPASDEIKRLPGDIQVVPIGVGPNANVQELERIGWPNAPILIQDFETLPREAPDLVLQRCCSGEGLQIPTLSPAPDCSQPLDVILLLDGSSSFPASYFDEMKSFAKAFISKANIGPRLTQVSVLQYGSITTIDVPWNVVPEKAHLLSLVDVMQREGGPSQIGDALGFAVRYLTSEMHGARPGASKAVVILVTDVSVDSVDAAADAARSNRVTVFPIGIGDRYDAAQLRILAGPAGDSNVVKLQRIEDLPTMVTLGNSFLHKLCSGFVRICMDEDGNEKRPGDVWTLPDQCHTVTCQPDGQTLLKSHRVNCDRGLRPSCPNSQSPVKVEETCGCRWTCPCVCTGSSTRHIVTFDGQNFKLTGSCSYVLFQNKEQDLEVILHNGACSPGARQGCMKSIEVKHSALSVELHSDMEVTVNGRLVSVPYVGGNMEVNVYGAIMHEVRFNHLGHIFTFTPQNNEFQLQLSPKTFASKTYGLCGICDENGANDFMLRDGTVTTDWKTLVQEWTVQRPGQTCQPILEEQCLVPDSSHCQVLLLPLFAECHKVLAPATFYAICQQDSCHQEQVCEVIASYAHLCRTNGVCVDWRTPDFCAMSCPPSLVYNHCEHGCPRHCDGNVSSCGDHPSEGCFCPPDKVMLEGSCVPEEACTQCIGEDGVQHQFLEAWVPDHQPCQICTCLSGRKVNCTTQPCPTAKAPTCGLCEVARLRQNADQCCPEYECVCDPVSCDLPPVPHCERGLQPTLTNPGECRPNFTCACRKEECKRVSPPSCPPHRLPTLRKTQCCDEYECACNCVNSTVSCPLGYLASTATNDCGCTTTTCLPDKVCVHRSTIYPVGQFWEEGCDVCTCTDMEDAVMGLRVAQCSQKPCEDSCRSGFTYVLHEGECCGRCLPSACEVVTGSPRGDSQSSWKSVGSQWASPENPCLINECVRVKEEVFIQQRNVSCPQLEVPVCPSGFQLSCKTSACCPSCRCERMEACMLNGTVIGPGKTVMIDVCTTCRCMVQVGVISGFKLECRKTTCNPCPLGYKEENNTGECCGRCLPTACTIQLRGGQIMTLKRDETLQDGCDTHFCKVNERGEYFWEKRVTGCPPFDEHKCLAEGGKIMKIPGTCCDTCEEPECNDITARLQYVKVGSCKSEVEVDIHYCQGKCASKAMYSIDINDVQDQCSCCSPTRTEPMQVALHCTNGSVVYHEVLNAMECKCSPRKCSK
T2 sequence (P07359 17-652): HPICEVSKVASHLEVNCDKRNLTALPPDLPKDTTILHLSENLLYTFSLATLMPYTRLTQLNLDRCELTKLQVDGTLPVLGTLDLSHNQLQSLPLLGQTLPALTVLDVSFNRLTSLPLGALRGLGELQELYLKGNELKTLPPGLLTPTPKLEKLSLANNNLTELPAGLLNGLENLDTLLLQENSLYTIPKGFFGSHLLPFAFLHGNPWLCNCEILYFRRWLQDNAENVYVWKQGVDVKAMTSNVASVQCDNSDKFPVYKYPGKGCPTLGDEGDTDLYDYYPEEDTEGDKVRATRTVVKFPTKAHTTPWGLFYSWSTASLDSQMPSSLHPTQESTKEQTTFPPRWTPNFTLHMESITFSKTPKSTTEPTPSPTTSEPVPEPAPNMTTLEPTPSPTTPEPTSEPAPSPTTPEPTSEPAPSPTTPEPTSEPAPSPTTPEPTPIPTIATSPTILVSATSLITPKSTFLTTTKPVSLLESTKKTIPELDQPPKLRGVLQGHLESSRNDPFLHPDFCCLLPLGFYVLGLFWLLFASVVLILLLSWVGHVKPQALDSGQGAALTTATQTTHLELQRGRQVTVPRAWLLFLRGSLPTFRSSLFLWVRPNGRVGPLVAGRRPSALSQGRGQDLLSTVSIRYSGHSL

## Cc1cc(O)c(Cc2cc(O)c(Cc3cc(O)c(Cc4cc(O)c(Cc5cc(O)c(Cc6cc(O)c(Cc7cc(O)c(Cc8cc(O)ccc8CCC(=O)O)cc7CCC(=O)O)cc6CCC(=O)O)cc5CCC(=O)O)cc4CCC(=O)O)cc3CCC(=O)O)cc2CCC(=O)O)cc1CCC(=O)O [Ex 4, 5-[4-[4-[4-[4-[4-[4-[[2-(2-carboxyethyl)-5-hydroxy]benzyl]-[2-(2-carboxyethyl)-5-hydroxy]benzyl]-[2-(2-carboxyethyl)-5-hydroxy]benzyl]-[2-(2-carboxyethyl)-5-hydroxy]benzyl]-[2-(2-carboxyethyl)-5-hydroxy]benzyl]-[2-(2-carboxyethyl)-5-hydroxy]benzyl]-[2-(2-carboxyethyl)-5-hydroxy]benzyl]-4-hydroxy-2-methylhydrocinnamic acid]
[1]
  % Inhibition of Heparanase Activity (5µg/ml): 2%
Normal pooled plasma
  APTT ICDCT: 430 µg/mL
vWF Binding to Gp1b
  Ristocetin-Induced Inhibition of vWF Binding to Gp1b: 50% at 100 µg/ml
[2]
  Platelet Aggregation IC50: >1000 µg/mL
